For 5 compounds, remaining activity and IC50 results are on record in PMC9228872, “Repositioning of Quinazolinedione-Based Compounds on Soluble Epoxide Hydrolase (sEH) through 3D Structure-Based Pharmacophore Model-Driven Investigation” (Molecules, 2022).

Experiment [1] deals with T1, soluble epoxide hydrolase (sEH) (Homo sapiens, UniProt P34913).
T1 construct: gene EPHX2; human recombinant sEH; C-terminal hydrolase domain activity measured
T1 sequence (P34913 1-555): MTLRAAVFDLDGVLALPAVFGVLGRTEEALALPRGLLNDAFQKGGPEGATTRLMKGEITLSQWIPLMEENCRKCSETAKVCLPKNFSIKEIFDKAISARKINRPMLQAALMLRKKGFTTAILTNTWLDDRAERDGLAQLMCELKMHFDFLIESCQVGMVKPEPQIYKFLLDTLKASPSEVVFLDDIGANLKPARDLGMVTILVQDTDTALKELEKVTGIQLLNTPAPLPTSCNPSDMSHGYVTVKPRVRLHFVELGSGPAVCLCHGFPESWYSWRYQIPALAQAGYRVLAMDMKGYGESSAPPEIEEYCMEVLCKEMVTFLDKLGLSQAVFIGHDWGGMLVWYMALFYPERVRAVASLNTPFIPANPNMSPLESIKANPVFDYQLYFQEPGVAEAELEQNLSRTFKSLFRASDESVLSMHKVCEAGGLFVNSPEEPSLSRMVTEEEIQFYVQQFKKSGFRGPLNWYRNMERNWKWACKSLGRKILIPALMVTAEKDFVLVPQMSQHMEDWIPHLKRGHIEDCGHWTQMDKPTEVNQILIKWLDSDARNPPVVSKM
As to the kind of experiment: cell-free fluorescence assay with PHOME substrate, single concentration […]. As to conditions: read-out: sEH Residual Activity (%). The format is biochemical.

Experiment [2] addresses T1, soluble epoxide hydrolase (sEH). The experiment is described as follows: cell-free fluorescence assay with PHOME substrate, concentration-response. Type of experiment: biochemical.

Regarding `O=C(CCCCCn1c(=O)[nH]c2ccccc2c1=O)Nc1ccc2ncsc2c1` [compound 8, N-(benzo[d]thiazol-6-yl)-6-(2,4-dioxo-1,2-dihydroquinazolin-3(4H)-yl)hexanamide], in experiment [1], the remaining activity at 10 µM came to 51.7 ± 3.3%.
`O=C(CCCCCn1c(=O)[nH]c2ccccc2c1=O)Nc1ccc(I)nc1` [compound 7, 6-(2,4-dioxo-1,2-dihydroquinazolin-3(4H)-yl)-N-(6-iodopyridin-3-yl)hexanamide]: the remaining activity at 10 µM in experiment [1] amounted to 67.2 ± 4.4%.
Take `O=C(CCCCCCn1c(=O)[nH]c2ccccc2c1=O)Nc1cncc(Br)c1` [compound 6, N-(5-bromopyridin-3-yl)-7-(2,4-dioxo-1,2-dihydroquinazolin-3(4H)-yl)heptanamide]: in experiment [1], the remaining activity at 10 µM came out at 48.6 ± 3.8%.
A word on the IC50: it is the concentration that inhibits the measured activity by half. The low end stands for inhibition by little substance, the high end for a need for much substance. In experiment [2], `O=C(CCCCn1c(=O)[nH]c2ccccc2c1=O)Nc1ccc2c(c1)OCCO2` [compound 3, N-(2,3-dihydrobenzo[b][1,4]dioxin-6-yl)-5-(2,4-dioxo-1,2dihydroquinazolin-3(4H)yl)pentanamide] showed an IC50 of 8.8 ± 1.5 µM.
As for `O=C(CCCCCn1c(=O)[nH]c2ccccc2c1=O)Nc1ccc2c(c1)OCCO2` [compound 4, N-(2,3-dihydrobenzo[b][1,4]dioxin-6-yl)-6-(2,4-dioxo-1,2-dihydroquinazolin-3(4H)-yl)hexanamide], it took 4.5 ± 1 µM to reach half-maximal inhibition in experiment [2] (IC50).
